Test results: US20230077362A1 (CORTEVA AGRISCIENCE LLC, priority 2019, published 2023)
Where two headings read alike, the source gives them in different places.

Assays:
[1] = tested on: Beet Armyworm (Spodoptera exigua) ("BAW"), second instar larvae; assay: Bioassay on beet armyworm (BAW), 128-well diet tray assay; format: in vivo; details: for pest or weed control at 50 µg/cm2: Spodoptera exigua; for BAW rating: C = not tested, D = no activity noticed
Summary of the method: (§1)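 After sealing with a clear self-adhesive lid, the trays are incubated at 25° C. with 14 h light and 10 h dark for 5 to 7 days; mortality in each well is recorded as a percentage and averaged across the eight wells.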

[2] = tested on: Cabbage Looper (Trichoplusia ni) ("CL"), second instar larvae; assay: Bioassay on cabbage looper (CL), 128-well diet tray assay; format: in vivo; details: for CL rating: C = not tested, D = no activity noticed
Summary of the method: as §1

[3] = read-out: BAW (Biological Results, rating)
[4] = Trichoplusia ni, read-out: CL (Biological Results, rating)
[5] = Trichoplusia ni, read-out: CL rating

`COc1ccc(C(C)C)c(N2C(=O)CS/C2=N\C(=O)Nc2ccc(-c3ncn(-c4ccc(OC(F)(F)F)cc4)n3)c(C)c2)c1` [Compound J22, (Z)-1-(3-(2-Isopropyl-5-methoxyphenyl)-4-oxothiazolidin-2-ylidene)-3-(3-methyl-4-(1-(4-(trifluoromethoxy)phenyl)-1H-1,2,4-triazol-3-yl)phenyl)urea] was tested, and the pest or weed control at 50 µg/cm2 [1, 3] was 50 to 100% and the pest or weed control at 50 µg/cm2 [2, 4] was 50 to 100%.

In the case of `CC(C)c1ccc(N(C)C)cc1N1C(=O)CS/C1=N\C(=O)Nc1ccc(-c2ncn(-c3ccc(OC(F)(F)F)cn3)n2)cc1C(F)(F)F` [Compound J275, (Z)-1-(3-(5-(Dimethylamino)-2-isopropylphenyl)-4-oxothiazolidin-2-ylidene)-3-(4-(1-(5-(trifluoromethoxy)pyridin-2-yl)-1H-1,2,4-triazol-3-yl)-2-(trifluoromethyl)phenyl)urea], the pest or weed control at 50 µg/cm2 [1, 3] is reported as 50 to 100% and the pest or weed control at 50 µg/cm2 [2, 4] is reported as 50 to 100%.

In the case of `Cc1ccc(COCC(F)(F)F)c(N2C(=O)CS/C2=N\C(=O)Nc2ccc(-c3ncn(-c4ccc(C(F)F)cn4)n3)cc2F)c1` [Compound J346], the “BAW (Biological Results, rating)” value ([1]; Beet Armyworm (Spodoptera exigua), C = Not Tested) is reported as “A (50-100)” and the “CL (Biological Results, rating)” value ([2]; Cabbage Looper (Trichoplusia ni), C = Not Tested) is reported as “A (50-100)”.

In the case of `Cc1ccc(C(C)C)c(N2C(=O)CS/C2=N\C(=O)Nc2ccc(-c3ncn(-c4ccc(OC(F)(F)F)cn4)n3)cc2C(F)(F)F)c1` [Compound J260, (Z)-1-(3-(2-Isopropyl-5-methylphenyl)-4-oxothiazolidin-2-ylidene)-3-(4-(1-(5-(trifluoromethoxy)pyridin-2-yl)-1H-1,2,4-triazol-3-yl)-2-(trifluoromethyl)phenyl)urea], the pest or weed control at 50 µg/cm2 [1, 3] is reported as 50 to 100% and the pest or weed control at 50 µg/cm2 [2, 4] is reported as 50 to 100%.

With `CCCCc1ccc(C)cc1N1C(=O)CS/C1=N\C(=O)Nc1ccc(-c2ncn(-c3ccc(OC(F)(F)F)cc3)n2)cc1F` [Compound J44, (Z)-1-(3-(2-Butyl-5-methylphenyl)-4-oxothiazolidin-2-ylidene)-3-(2-fluoro-4-(1-(4-(trifluoromethoxy)phenyl)-1H-1,2,4-triazol-3-yl)phenyl)urea] the pest or weed control at 50 µg/cm2 [1, 3] was 50 to 100% and the pest or weed control at 50 µg/cm2 [2, 4] was 50 to 100%.

With `CCOCc1ccc(C)cc1N1C(=O)CS/C1=N\C(=O)Nc1ccc(-c2ncn(-c3ccc(SC(F)(F)F)cc3)n2)cc1F` [Compound J195, (Z)-1-(3-(2-(Ethoxymethyl)-5-methylphenyl)-4-oxothiazolidin-2-ylidene)-3-(2-fluoro-4-(1-(4-((trifluoromethyl)thio)phenyl)-1H-1,2,4-triazol-3-yl)phenyl)urea] the pest or weed control at 50 µg/cm2 [1, 3] was 50 to 100% and the pest or weed control at 50 µg/cm2 [2, 4] was 50 to 100%.

`COC(C)c1ccc(C)cc1N1C(=O)CS/C1=N\C(=O)Nc1ccc(-c2ccn(-c3ccc(C(F)(F)F)cn3)n2)cc1C` (centres unmarked) [Compound J311, (Z)-1-(3-(2-(1-Methoxyethyl)-5-methylphenyl)-4-oxothiazolidin-2-ylidene)-3-(2-methyl-4-(1-(5-(trifluoromethyl)pyridin-2-yl)-1H-pyrazol-3-yl)phenyl)urea] was tested, and the pest or weed control at 50 µg/cm2 [1, 3] was 50 to 100% and the pest or weed control at 50 µg/cm2 [2, 4] was 50 to 100%.

For `Cc1ccc(C(C)C)c(N2C(=O)CS/C2=N\C(=O)Nc2ccc(-c3ncn(-c4ccc(C(F)(F)F)cn4)n3)cc2C(F)(F)F)c1` [Compound J301, (Z)-1-(3-(2-Isopropyl-5-methylphenyl)-4-oxothiazolidin-2-ylidene)-3-(2-(trifluoromethyl)-4-(1-(5-(trifluoromethyl)pyridin-2-yl)-1H-1,2,4-triazol-3-yl)phenyl)urea], the pest or weed control at 50 µg/cm2 [1, 3] was 50 to 100% and the pest or weed control at 50 µg/cm2 [2, 4] was 50 to 100%.

With `CC(C)c1ccc(C(C)C)c(N2C(=O)CS/C2=N\C(=O)Nc2ccc(-c3ncn(-c4ccc(OC(F)(F)F)cc4)n3)cc2F)c1` [Compound J164, (Z)-1-(3-(2,5-Diisopropylphenyl)-4-oxothiazolidin-2-ylidene)-3-(2-fluoro-4-(1-(4-(trifluoromethoxy)phenyl)-1H-1,2,4-triazol-3-yl)phenyl)urea] the pest or weed control at 50 µg/cm2 [1, 3] was 50 to 100% and the pest or weed control at 50 µg/cm2 [2, 4] was 50 to 100%.

With `Cc1ccc(COCC(F)(F)F)c(N2C(=O)CS/C2=N\C(=O)Nc2ccc(-c3ncn(-c4ccc(OCC#N)cc4)n3)cc2F)c1` [Compound J343, (Z)-1-(4-(1-(4-(Cyanomethoxy)phenyl)-1H-1,2,4-triazol-3-yl)-2-fluorophenyl)-3-(3-(5-methyl-2-((2,2,2-trifluoroethoxy)methyl)phenyl)-4-oxothiazolidin-2-ylidene)urea] the pest or weed control at 50 µg/cm2 [1, 3] was 50 to 100% and the pest or weed control at 50 µg/cm2 [2, 4] was 50 to 100%.

In the case of `Cc1ccc(COCC(Cl)Cl)c(N2C(=O)CS/C2=N\C(=O)Nc2ccc(-c3ncn(-c4ccc(S(F)(F)(F)(F)F)cc4)n3)cc2F)c1` [Compound J554], the BAW rating ([1]; Table ABC, species BAW) is reported as “A (50-100)” and the CL rating ([2]; Table ABC, species CL) is reported as “A (50-100)”.

With `COCc1ccc(C)cc1N1C(=O)CS/C1=N\C(=O)Nc1ccc(-n2cnc(-c3ccc(OC(F)(F)F)cc3)c2)cc1Cl` [Compound J788, (Z)-1-(2-Chloro-4-(4-(4-(trifluoromethoxy)phenyl)-1H-imidazol-1-yl)phenyl)-3-(3-(2-(methoxymethyl)-5-methylphenyl)-4-oxothiazolidin-2-ylidene)urea] the “BAW rating (% control or mortality class)” value ([1]; Table ABC, species BAW, 128-well diet tray assay, second instar larvae) was “A (50-100)” and the mortality at 50 µg/cm2 ([2]; Trichoplusia ni, Table ABC, species CL, 128-well diet tray assay, second instar larvae, read-out: CL rating (% control or mortality class)) was 50 to 100%.

Compound `Cc1ccc(C(F)(F)F)c(N2C(=O)C(Cl)S/C2=N\C(=O)Nc2ccc(-c3ncn(-c4ccc(OC(F)(F)F)cc4)n3)cc2F)c1` (centres unmarked) [Compound J34, (Z)-1-(5-Chloro-3-(5-methyl-2-(trifluoromethyl)phenyl)-4-oxothiazolidin-2-ylidene)-3-(2-fluoro-4-(1-(4-(trifluoromethoxy)phenyl)-1H-1,2,4-triazol-3-yl)phenyl)urea] has a pest or weed control at 50 µg/cm2 [1, 3] of 50 to 100% and a pest or weed control at 50 µg/cm2 [2, 4] of 50 to 100%.

`Cc1ccc(OCCC(F)(F)F)c(N2C(=O)CS/C2=N\C(=O)Nc2ccc(-c3ncn(-c4ccc(OC(F)(F)F)cn4)n3)cc2C#N)c1` [Compound J264, (Z)-1-(2-Cyano-4-(1-(5-(trifluoromethoxy)pyridin-2-yl)-1H-1,2,4-triazol-3-yl)phenyl)-3-(3-(5-methyl-2-(3,3,3-trifluoropropoxy)phenyl)-4-oxothiazolidin-2-ylidene)urea] was tested, and the pest or weed control at 50 µg/cm2 [1, 3] was 50 to 100% and the pest or weed control at 50 µg/cm2 [2, 4] was 50 to 100%.

For `Cc1ccc(COCC(F)(F)F)c(N2C(=O)CS/C2=N\C(=O)Nc2ccc(-c3ncn(-c4ccc(OC(F)(F)F)cn4)n3)cc2C(F)(F)F)c1` [Compound J274, (Z)-1-(3-(5-Methyl-2-((2,2,2-trifluoroethoxy)methyl)phenyl)-4-oxothiazolidin-2-ylidene)-3-(4-(1-(5-(trifluoromethoxy)pyridin-2-yl)-1H-1,2,4-triazol-3-yl)-2-(trifluoromethyl)phenyl)urea], the pest or weed control at 50 µg/cm2 [1, 3] was 50 to 100% and the pest or weed control at 50 µg/cm2 [2, 4] was 50 to 100%.

With `CN(C)c1ccc(C(F)(F)F)c(N2C(=O)CS/C2=N\C(=O)Nc2ccc(-c3cn(-c4ccc(C(F)(F)F)cn4)cn3)cc2F)c1` [Compound J483, (Z)-1-(3-(5-(Dimethylamino)-2-(trifluoromethyl)phenyl)-4-oxothiazolidin-2-ylidene)-3-(2-fluoro-4-(1-(5-(trifluoromethyl)pyridin-2-yl)-1H-imidazol-4-yl)phenyl)urea] the pest or weed control at 50 µg/cm2 ([1]; read-out: BAW rating) was 50 to 100% and the pest or weed control at 50 µg/cm2 [2, 5] was 50 to 100%.

`CC(C)c1ccc(N(C)C)cc1N1C(=O)CS/C1=N\C(=O)Nc1ccc(-c2ncn(-c3ccc(OC(F)(F)F)cc3)n2)cc1Cl` [Compound J166, (Z)-1-(2-Chloro-4-(1-(4-(trifluoromethoxy)phenyl)-1H-1,2,4-triazol-3-yl)phenyl)-3-(3-(5-(dimethylamino)-2-isopropylphenyl)-4-oxothiazolidin-2-ylidene)urea] gave a pest or weed control at 50 µg/cm2 [1, 3] of 50 to 100% and a pest or weed control at 50 µg/cm2 [2, 4] of 50 to 100%.

`CC(C)c1ccc(N(C)C)cc1N1C(=O)CS/C1=N\C(=O)Nc1ccc(-c2ncn(-c3ccc(OC(F)(F)F)cc3)n2)cc1C(F)F` [Compound J213, (Z)-1-(2-(Difluoromethyl)-4-(1-(4-(trifluoromethoxy)phenyl)-1H-1,2,4-triazol-3-yl)phenyl)-3-(3-(5-(dimethylamino)-2-isopropylphenyl)-4-oxothiazolidin-2-ylidene)urea] showed a pest or weed control at 50 µg/cm2 [1, 3] of 50 to 100% and a pest or weed control at 50 µg/cm2 [2, 4] of 50 to 100%.

For `Cc1ccc(OCCC(F)(F)F)c(N2C(=O)CS/C2=N\C(=O)Nc2ccc(-n3cnc(-c4ccc(OC(F)(F)F)cc4)n3)cc2C)c1` [Compound J441, (Z)-1-(3-(5-Methyl-2-(3,3,3-trifluoropropoxy)phenyl)-4-oxothiazolidin-2-ylidene)-3-(2-methyl-4-(3-(4-(trifluoromethoxy)phenyl)-1H-1,2,4-triazol-1-yl)phenyl)urea], the pest or weed control at 50 µg/cm2 ([1]; read-out: BAW rating) was 50 to 100% and the pest or weed control at 50 µg/cm2 [2, 5] was 50 to 100%.

Work on `Cc1ccc(OCCC(F)(F)F)c(N2C(=O)C(Cl)S/C2=N\C(=O)Nc2ccc(-c3ncn(-c4ccc(C(F)(F)F)cc4)n3)cc2)c1` (centres unmarked) [Compound J317, (Z)-1-(5-Chloro-3-(5-methyl-2-(3,3,3-trifluoropropoxy)phenyl)-4-oxothiazolidin-2-ylidene)-3-(4-(1-(4-(trifluoromethyl)phenyl)-1H-1,2,4-triazol-3-yl)phenyl)urea] yielded a pest or weed control at 50 µg/cm2 [1, 3] of 50 to 100% and a pest or weed control at 50 µg/cm2 [2, 4] of 50 to 100%.

Compound `Cc1ccc(Cc2cccc(C(F)(F)F)c2)c(N2C(=O)CS/C2=N\C(=O)Nc2ccc(-c3ncn(-c4ccc(OC(F)(F)F)cc4)n3)cc2C)c1` [Compound J440, (Z)-1-(3-(5-Methyl-2-(3-(trifluoromethyl)benzyl)phenyl)-4-oxothiazolidin-2-ylidene)-3-(2-methyl-4-(1-(4-(trifluoromethoxy)phenyl)-1H-1,2,4-triazol-3-yl)phenyl)urea] has a pest or weed control at 50 µg/cm2 ([1]; read-out: BAW rating) of 50 to 100% and a pest or weed control at 50 µg/cm2 [2, 5] of 0 to 50%.

For `Cc1ccc(COCC(F)(F)F)c(N2C(=O)CS/C2=N\C(=O)Nc2ccc(-c3ncn(-c4ccc(OC(F)(F)C(F)(F)F)cc4)n3)cc2C)c1` [Compound J681], the BAW rating ([1]; Table ABC, species BAW) was “A (50-100)” and the CL rating ([2]; Table ABC, species CL) was “A (50-100)”.
